Experimental data as given in the NIST ThermoML archive (doi:10.1021/je900188m).

How the values were obtained:
[1] = 101 kPa, Liquid; for viscosity: Capillary tube (Ostwald / Ubbelohde) method; for mass density: Vibrating tube method
[2] = xn = mol fraction of the nth substance listed; conditions: 101 kPa, Liquid; for viscosity: Capillary tube (Ostwald / Ubbelohde) method; for mass density: Vibrating tube method

NCCO [2-aminoethan-1-ol]
[1]
Conditions | mass density [kg/m3] | viscosity [mPa·s]
298.15 K | 1012 | 19.9
313.15 K | 1000 | 9.61
323.15 K | 992 | 6.72
343.15 K | 976 | 3.69
353.15 K | 968 | 2.85

NCCO [2-aminoethan-1-ol] + O
[2]
Conditions | mass density, 298.15 K [kg/m3] | mass density, 313.15 K [kg/m3] | mass density, 323.15 K [kg/m3] | mass density, 343.15 K [kg/m3] | mass density, 353.15 K [kg/m3] | viscosity, 298.15 K [mPa·s] | viscosity, 313.15 K [mPa·s] | viscosity, 323.15 K [mPa·s] | viscosity, 343.15 K [mPa·s] | viscosity, 353.15 K [mPa·s]
x1 = 0.06867 | 1005 | 999 | 994 | 983 | 977 | 1.7 | 1.18 | 0.95 | 0.67 | 0.58
x1 = 0.1122 | 1011 | 1003 | 998 | 986 | 979 | 2.48 | 1.67 | 1.33 | 0.92 | 0.77
x1 = 0.1643 | 1016 | 1008 | 1002 | 989 | 982 | 3.58 | 2.28 | 1.75 | 1.14 | 0.95
x1 = 0.2278 | 1021 | 1012 | 1005 | 992 | 984 | 5.51 | 3.39 | 2.54 | 1.57 | 1.28
x1 = 0.4076 | 1026 | 1016 | 1008 | 993 | 985 | 12.46 | 6.96 | 4.94 | 2.79 | 2.18
x1 = 0.7264 | 1020 | 1008 | 1001 | 985 | 976 | 19.4 | 10.2 | 7.06 | 3.81 | 2.93
